The results in this text go back to ChEMBL document CHEMBL3046254, “Antifeedant Activity Evaluation of Withanolides from Jaborosa integrifolia” (2000).

One may read the inhibition as the change of the read-out against control, counted positive when it falls.

The subject of test [1] is Spodoptera littoralis. Briefly: Antifeedant activity against Spodoptera littoralis assessed as inhibition of diet consumption at 20 ug/cm2 by leaf disk choice assay relative to control. Format: functional. Conditions: foliar.
The subject of test [2] is Spodoptera littoralis. Briefly: Antifeedant activity against Spodoptera littoralis assessed as inhibition of diet consumption by leaf disk choice assay relative to control. The class given is functional.

Consider `CC1=C(CO)C(=O)O[C@@H]([C@@H](C)[C@H]2CC[C@H]3[C@@H]4C[C@H]5O[C@]56CC=CC(=O)[C@]6(C)[C@H]4CC[C@]23C)C1` [JABOROSALACTONE A], for which the inhibition at 20 µg/cm2 with Spodoptera littoralis [1] turned out to be 74%.
For the molecule `CC1=C(CO)C(=O)O[C@@H]([C@@H](C)[C@H]2CC[C@H]3[C@@H]4C[C@@H](O)C5=CC=CC(=O)[C@]5(C)[C@H]4CC[C@]23C)C1` [JABOROSALACTONE B], in the test on Spodoptera littoralis [2], the “inhibition (INH)” value was 19%.
As for `CC1=C(CO)C(=O)O[C@@H]([C@@H](C)[C@H]2CC[C@H]3[C@@H]4C[C@@H](O)[C@@]5(O)CC=CC(=O)[C@]5(C)[C@H]4CC[C@]23C)C1` [JABOROSALACTONE D], in the test on Spodoptera littoralis [2], the “inhibition (INH)” value is recorded as -19%.
